# Reference: patent US20250352654A1, “PHARMACEUTICAL AGENT CONJUGATES TO MODULATE MACROPHAGE AND INFLAMMATORY FUNCTIONS AND USES THEREOF” (REGENTS OF THE UNIVERSITY OF MINNESOTA, priority 2022, published 2025)
# Bridge positions count the residues as written; N and C are the ends. Peptide text beside a SMILES is read from it. * marks the point of attachment. 5FAM = O=C1OC2(c3ccc(O)cc3Oc3cc(O)ccc32)c2ccc(C(=O)*)cc21; Ahx = NCCCCCC(=O)O
# Assays:
# [1] = In vivo pharmacokinetics of DEX conjugates; conditions: male, DBA/1J, mouse, plasma, iv, 1 mg kg^-1 (DEX equivalent); healthy mice; mean ± SD (n = 3)
# Experimental: All the animal experiments were performed on 3 mice per group. The data are presented as the mean±standard deviation (SD). […] All the animal experiments were performed on 3 mice per group. The data are presented as the mean±standard deviation (SD). Statistical significance was calculated using Student's t test. *P<0.05, **P<0.01 between groups. […] ND, not determined.
# HPLC-MS/MS analysis was performed using the chromatographic system consisting of UltiMate 3000 RSLCnano System (Thermo Fisher Scientific) and a ZORBAX C18 column (5 μm, 150 mm 0.5 mm, Agilent, Santa Clara, CA). The mobile phase was a mixture of H2O/acetonitrile with a gradient elution (from 90:10 to 10:90 and return to 90:10, v/v) at a flow rate of 15 μl/min. The eluent was introduced directly into the electrospray source of a tandem quadrupole mass spectrometer (TSQ VANTAGE, Thermo Fisher Scientific) that was operated in the positive mode. The spray voltage was set at 3000 V. The compounds were analyzed by multiple reaction monitoring (MRM) of the transitions of m/z (ESI+) 361.24→147.06 for PSL.
# Healthy DBA/1J male mice at age of 8-9 weeks were deprived of food overnight with free access to water. […] Approximately 20 IL of blood was collected via facial vein at 5, 15, 30, 60 min and, 2, 6, 12, 24, and 48 h, and plasma were obtained by centrifugation at 500×g for 10 min. […]
# [2] = Short-term side effects of DEX conjugates in CIA mice; assay type: in vivo, mouse; conditions: 0.01 mg kg-1 DEX equivalent i.v. every two days for one week
# Experimental: (§1) (A) Quantification of immunofluorescent signals (Top) and representative immunofluorescent images (bottom) of TUNEL-positive cells showing apoptotic cells in tissues of mice receiving short-term treatments. (B-C) Plasma levels of liver enzymes alanine transaminase (ALT) and (F) aspartate transaminase (AST). […] Thymus and spleen weight in mice receiving long-term treatments.
# (§2) The TUNEL staining was performed using an In Situ Cell Death Detection Kit (Roche Diagnostics GmbH, Mannheim, Germany). The paraffin sections were stained with TUNEL reaction mixture for 1 h at 37° C. followed by Hoechst staining for nucleus. The images were captured by using fluorescence microscopy EVOS M5000 and the fluorescence intensity of TUNEL positive cells was evaluated by ImageJ software for semi-quantification.
# (§3) The aminotransferase quantification was performed to determine toxicity effect of different formulations of PSL on the liver. Blood samples were collected by cardiac puncture after the treatment. The levels of aspartate aminotransferase (AST) and alanine aminotransferase (ALT) in plasma were measured using assay kits from Stanbio (Boerne, TX).
# (§4) Additionally, we examined the commonly seen systemic side effects including the reduced thymus and spleen weight due to increased apoptosis after a short-term low dose and a long-term glucocorticoid usage.
# [3] = Long-term toxicity of DEX conjugates in healthy mice; assay type: in vivo, mouse; conditions: 2 mg kg-1 DEX equivalent, daily i.v. for 2 weeks
# Experimental: as §1, §2, §3, §4
# [4] = DEX-PEG conjugations with different PEG lengths in obese mice with ALI; assay type: in vivo, mouse; conditions: 0.1 mg/kg DEX equivalent i.v. every other day for 3 weeks
# Experimental: (A) Body weight of mice in each treatment group. (B) Blood glucose of mice during the ITT experiment. Mice were fasted for 6 hours, and […] of insulin was administered via intraperitoneal (i.p.) injection. The blood glucose levels were measured using Clarity BG1000 Blood Glucose Meter Strips at 0, 15, 30, 60, 90, and 120 minutes after the injection. (C) Thymus weight of mice in each group at the end of the study. Triglycerides (D), total cholesterol (E) and non-HDL cholesterol (F) in mice plasma were quantified by LiquiColor® Test (Enzymatic) Kit. Error bars indicate S.E.M., n=4. *p<0.05 and **p<0.01 (Student's t-test).
# Liver was collected, fixed and sectioned. H&E staining was carried out according to the standard protocol. Scale bar, […] for all images.
# Male C57 mice were subjected to high-fat diet feeding for 8 weeks to induce obesity. An acute lung injury (ALI) model was established in the obesity mice by administering 30 μg of LPS intratracheally per mouse.
# In addition, lean mice and obese mice without ALI were included in the study as controls and received no treatment. Body weight of the mice was monitored every other day during the study. One day prior to sacrificing the mice, an insulin tolerance test (ITT) was conducted. Blood and major organs were collected at the end of the study, and plasma triglycerides, total and non-HDL cholesterol were quantified. The organs were weighed and sectioned for H&E staining.
# [5] = tested on: inflamed synovium of the arthritic joints; test: FAM-CRV homing in CIA mice (IHC/IF); assay type: in vivo, mouse; conditions: i.v., 1 h, IHC
# Experimental: FIGS. 7B-7D illustrates In vivo CRV peptide distribution in arthritic mouse models. (B) Scheme of synthesis of 64Cu-DOTA-CRV. (C) Representative immunohistochemistry (IHC) images of peptide accumulation in the tissues of collagen-induced-arthritis (CIA) mice with anti-FITC antibody for FAM-labeled CRV and FAM-GGS, upon intravenous injection for 1 h, respectively. Scale bars: 100 μm. (D) Representative IHC images of CRV-peptide and a control peptide (GGS) accumulation in the ankle joints of K/B×N serum-transfer arthritic mice at 1 h post intravenous injection as detected by FAM signals with anti-FITC antibody. Scale bar: 200 μm for 10× magnification; 100 μm for 20× magnification. All the animal experiments were performed in 3 mice per group. DOTA, 1,4,7,10-tetraazacyclododocane tetraacetic acid; FAM, carboxyfluorescein; FITC, fluorescein isothiocyanate.
# FIG. 8A-8G CRV targets the inflamed synovium of the arthritic joints. (A) Scheme of the establishment of collagen-induced arthritis (CIA) model. (B) In vivo PET/CT images of 64Cu-DOTA and 64Cu-DOTA-CRV accumulation at the joints of mice with CIA. […] (C) Quantification of 64Cu-DOTA or 64Cu-DOTA-CRV uptake at the knees and ankles by analyzing PET data of the region of interest (ROI). […] (E) Representative IHC images of CRV-peptide accumulation in the knee joint as detected by FAM signals with anti-FITC antibody. […]
smiles,measurement,setting,value
"C[C@@H]1C[C@H]2[C@@H]3CCC4=CC(=O)C=C[C@]4(C)[C@@]3(F)[C@@H](O)C[C@]2(C)[C@@]1(O)C(=O)CO [DEX, dexamethasone]",AUC(0-t),[1],23.2 ± 5.14 ng·h/mL
same,"apoptosis in tissues (TUNEL), short-term",[2],increases the level of apoptosis mainly in the thymus
same,"apoptosis in thymus and spleen (TUNEL), long-term",[3],increased apoptosis in thymus and spleen
same,"thymus and spleen weight, long-term",[3],most significant weight loss of thymus and spleen
same,Thymus weight,[4],reduces thymus weight
same,body weights or blood glucose,[4],no change
same,triglycerides in the plasma,[4],elevates the blood triglyceride
CC(C)C[C@@H]1NC(=O)[C@H](C(C)C)NC(=O)[C@H](CCCNC(=N)N)NC(=O)[C@@H](NC(=O)CCCCCNC(=O)c2ccc3c(c2)C(=O)OC32c3ccc(O)cc3Oc3cc(O)ccc32)CSSC[C@@H](C(=O)O)NC(=O)[C@H](CO)NC(=O)CNC(=O)[C@H](CO)NC(=O)[C@H](CCCNC(=N)N)NC1=O [CRV] ({5FAM-Ahx}-CRVLRSGSC-OH; disulfide 1-9),peptide accumulation in other organs,[5],"some accumulation of CRV in the liver and kidney, while no or much less in other organs"
